Experiments:
[1] = tested on: cervical fibroblasts; assay: Effect on Ca2+ levels in cervical fibroblasts (Fluo-4 fluorescence); type: cell-based, human; settings: cultures from non-pregnant and term pregnant patients
Description: Fibroblast cultures were established from non-pregnant, and term pregnant patients and from women delivered vaginally (after partus patients). The cells were cultured in monolayer cultures with minimum essential medium with 10% donor calf serum. For experiments these cells were plated on cover glasses with at semi-confluence and loaded with Fluo-4 in phosphate buffered saline containing 10 mM HEPES for 30 min. Initially phosphate buffered saline containing 10 mM HEPES (HEPES-buffer) was pumped into the observation chamber for 30 s, then KCl in the same buffer was pumped for 60 s followed by HEPES-buffer for 30 s. Then 10 ng of PDGF/ml in HEPES-buffer was added. The fluorescence was monitored continuously for 3 min. In other experiments PDGF was replaced with 100 μg of HS6. […] This effect is postulated to be of importance at partus for final preparation of cervix for delivery.

[2] = tested on: human uterine strips (myometrial strip); assay: Contractile assay on uterine strips in organ bath; settings: 1 U oxytocin only
Description: In the following test heparan sulfate HS2 and HS6 obtained from the heparin side fraction TB 001-91 SVCM 950130 (Kabi-Pharmacia, Sweden) were tested. HS6 differs from HS2 by being more highly sulfated and having more L-iduronic acid residues (see Table 1 above).
Uterine samples were obtained from women undergoing elective caesarian section at 38-39 weeks of gestation. The samples measured 20×10×10 mm and were taken from the upper part of the isthmic incision. The biopsy was immediately placed in ice-cold Krebs-Ringer buffer. The biopsies were cut into longitudinal strips, length 10-15 mm and breadth about 5 mm. The strip was mounted vertically in an organ bath of 37° C. containing 2 ml Krebs-Ringer solution. The solution was bubbled with a mixture of 95% O2 and 5% CO2 in order to maintain a pH in the bath of 7.35-7.45. Experiments were carried out after the strips had equilibrated to a stable contractile state, usually within 1-2 h after mounting. The contractions were recorded isometrically with a Grass model 7 polygraph (Grass Instr. Co., Quincy, Mass., USA). All samples were exposed to 100 mM KCl during the experiment in order to get a standardized maximum response. […]
This procedure was repeated using 6 μg of heparan sulfate. […] The contractions were recorded and evaluated by integrating the surface under the curve. […]

[Cl-].[K+] [KCl]
Change of fluorescence (intracellular Ca2+) [1]: No change of fluorescence

PDGF
Change of fluorescence (intracellular Ca2+) [1]: No change of fluorescence

CC[C@H](C)[C@@H]1NC(=O)[C@H](Cc2ccc(O)cc2)NC(=O)[C@@H](N)CSSC[C@@H](C(=O)N2CCC[C@H]2C(=O)N[C@@H](CC(C)C)C(=O)NCC(N)=O)NC(=O)[C@H](CC(N)=O)NC(=O)[C@H](CCC(N)=O)NC1=O [Oxytocin, oxytocin]
Relative contractility of myometrial strip, oxytocin control [2]: 226 % of unstimulated control
